Tested on: peripheral blood mononuclear cells (PBMCs)
Assay: Reprogramming of human peripheral blood cells into induced pluripotent stem cells; clones counted by alkaline phosphatase staining
Type: cell-based
Details: day 14, clones per 5.0×10^5 reprogrammed PBMCs, OCT4, SOX2, LIN28 episomal plasmids, inducers added to induction medium
Method: The inducing factors were introduced via electroporation of episomal plasmids in Treatment Groups 1 to 6. The groups differed only in the chemical inducer small molecules added to the pluripotent stem cell induction medium. The specific steps were as follows:
(2) Expansion of Peripheral Blood Cells: Freshly isolated peripheral blood cells (peripheral blood cells obtained with ethical approval were purchased from Shanghai HYCELLs Company) were seeded into a 6-well plate at a density of 5×10^6 cells/mL and cultured statically for 7 days at 37° C. in an incubator. The peripheral blood cell expansion medium used was StemPro™-34 medium supplemented with SCF 100 ng/ml, FLT-3 100 ng/ml, IL-3 20 ng/ml, IL-6 20 ng/ml, and TPO 100 ng/mL.
(3) Electroporation: Prior to electroporation, 500 μL of diluted basement membrane matrix (Matrigel) was added to a […] and placed in a CO2 incubator for coating. The expanded cells were collected and washed. After counting, the peripheral blood mononuclear cells (PBMCs) were placed in a 1.5 mL centrifuge tube at a density of 2×10^6 cells/mL. The tube was loaded into a centrifuge and centrifuged at 200 g for 5 minutes. After centrifugation, the supernatant was aspirated with a pipette and set aside for later use.
According to the Thermo Neon electroporation instrument protocols, buffer was added. The cell pellet was mixed with 5 μg of pCEP4-OCT4-IRES-SOX2 plasmid and 2 μg of pCEP4-Lin28 plasmid, and the mixture was loaded into the electroporation instrument for electroporation. Peripheral blood expansion medium was immediately added thereafter, and the cells were seeded in the coated 6-well plate at a density of 5×10^5 cells/mL and cultured statically for 48 h at 37° C. in a CO2 incubator.
(4) Induction: At 48 h post-electroporation, 1 mL of pluripotent stem cell induction medium was directly added to the original wells, and the culture was continued statically for 48 h at 37° C. in a CO2 incubator; On day 4 post-electroporation, half of the old medium in the original wells was aspirated and discarded, 1 mL of fresh pluripotent stem cell induction medium was then added, and the culture was continued statically for 48 h at 37° C. in a CO2 incubator; On day 6 post-electroporation, all the old medium in the original wells was aspirated and discarded, 1 mL of fresh pluripotent stem cell induction medium was added, and the culture was continued statically for 48 h at 37° C. in a CO2 incubator; On day 8 post-electroporation, all the old medium in the original wells was aspirated and discarded, 1 mL of fresh pluripotent stem cell induction medium was added, and the culture was continued statically for 48 h at 37° C. in a CO2 incubator; On day 10 post-electroporation, all the old medium in the original wells was aspirated and discarded, 1 mL of fresh mTeSR1 medium was added, and the culture was continued statically at 37° C. in a CO2 incubator; The mTeSR1 medium was changed daily until the induced pluripotent stem cells were fully mature, approximately on day 14 or 15 post-electroporation. Clones were then picked for expansion.
The pluripotent stem cell induction medium for Treatment Group 1 was mTeSR1 medium supplemented with 3 μM chir99021, 100 ng/ml FGF2, 250 μM NaB, 2 μM SB203580, 1 μM peficitinib, 1 μM FPFT-2216, 0.1 μM VTP50469, 2% (v/v) B27, and 1% (v/v)N-2.
The pluripotent stem cell induction medium for Treatment Group 2 was mTeSR1 medium supplemented with 3 μM chir99021, 100 ng/ml FGF2, 250 μM NaB. 1 μM peficitinib, 2% (v/v) B27, and 1% (v/v)N-2.
The pluripotent stem cell induction medium for Treatment Group 3 was mTeSR1 medium supplemented with 3 μM chir99021, 100 ng/ml FGF2, 250 μM NaB, 2 μM Tofacitinib, 2% (v/v) B27, and 1% (v/v)N-2.
The pluripotent stem cell induction medium for Treatment Group 4 was mTeSR1 medium supplemented with 3 μM chir99021, 100 ng/ml FGF2, 250 μM NaB, 2 μM SB203580, 2% (v/v) B27, and 1% (v/v)N-2. […]

Structure (SMILES) | Average Number of Pluripotent Stem Cell Clone/Well, Experiment 1 [Clone/Well] | Average Number of Pluripotent Stem Cell Clone/Well, Experiment 2 [Clone/Well] | Average Number of Pluripotent Stem Cell Clone/Well, Experiment 3 [Clone/Well]
NC(=O)c1cnc2[nH]ccc2c1N[C@@H]1[C@@H]2CC3C[C@H]1C[C@@](O)(C3)C2 [Peficitinib] | 43 | 52 | 47
C[S+]([O-])c1ccc(-c2nc(-c3ccncc3)c(-c3ccc(F)cc3)[nH]2)cc1 (stereo not drawn) [SB203580] | 51 | 56 | 48
C[C@@H]1CCN(C(=O)CC#N)C[C@@H]1N(C)c1ncnc2[nH]ccc12 [Tofacitinib] | 20 | 16 | 22
